Data reported in article PMC9537177, “A VEGFR targeting peptide-drug conjugate (PDC) suppresses tumor angiogenesis in a TACE model for hepatocellular carcinoma therapy” (Cell Death Discovery, 2022).
“Also recorded” adds a separate entry of the source. Square brackets hold non-standard residues; d marks the D form. Peptide text beside a SMILES is read from it. Aib = CC(C)(N)C(=O)O; Ahx = NCCCCCC(=O)O

Experiments:
[1] = system: HT29 cells with low expression of VEGFR; experiment: Cell competitive binding (cell affinity) assay by FACS, HT29; type: cell-based, human; conditions: QR-KLU 0-20 μM with 10 μM FAM-QR
Protocol: (§1) We then performed cell competitive binding assay to evaluate the affinity of the peptide conjugate to endothelial cell HUVEC with high expression of VEGFR [29]. FAM-labeled VEGF125−136 peptide QR was cultured with HUVEC cells for 4 h and then cellular penetration ability was tested by FACS. […] To further confirm our result, we then used HT29 cells to repeat this assay as HT29 cells are reported with low expression of VEGFR [29].
(§2) Fig. 2 The cell affinity of QR-KLU with different cell lines. Cell penetration of peptide QR-KLU with HUVEC cells (A) and HT29 cells (B). The cells were respectively treated with PBS, 10 μM FAM-QR + 0 μM QR-KLU, 10 μM FAM-QR + 2.5 μM QR-KLU, 10 μM FAM-QR + 5 μM QR-KLU, 10 μM FAM-QR + 10 μM QR-KLU, 10 μM FAM-QR + 20 μM QR-KLU. C The median fluorescence of HUVEC and HT29 cells treated with different peptides as mention in Fig. 2A, B.
(§3) The affinity ability of peptide QR-KLU to endothelial cells was determined by fluorescence-activated cell sorting (FACS) analysis. Briefly, the HUVEC cells were incubated on a 24-well plate for 24 h in growth medium. Then peptide QR-KLU in medium with different concentrations (0 μM, 2.5 μM, 5 μM, 10 μM, 20 μM) were respectively incubated with HUVEC cells for 30 min at 37 °C. Next, carboxy-fluorescein (FAM)-labelled-QR peptide (10 μM) were added to each well for 4 h at 37 °C. […] FACS was performed and the results were analyzed using FlowJo.

HUVEC cells [2] = experiment: Wound-healing assay of HUVEC cells; type: cell-based, human; conditions: 10 μM, 24 h
Protocol: Wound-healing assay was performed according to the protocols reported by Liang et al.. Briefly, HUVEC cells were plated into 12-well plate and grown to create a confluent monolayer. The monolayer was grazed in a straight line to create a “scratch” with a pipette tip. Markings were created close to the scratch to be used as reference points. Then cells were treated with different peptides for 24 h at 37 °C. Images were collected with a Leica DFC480 camera on a phase-contrast microscope equipped with a 10 × objective at room temperature. The free area of the wound was measured by image software. Supplementary Figure S1. Wound healing assay to detect the cell migration influenced by different peptides.

[3] = system: HUVEC cells with high expression of VEGFR; experiment: Cell competitive binding (cell affinity) assay by FACS, HUVEC; type: cell-based, human; conditions: QR-KLU 0, 2.5, 5, 10, 20 μM pre-incubated 30 min at 37 °C, then 10 μM FAM-QR for 4 h
Protocol: as §1, §2, §3

[4] = Therapeutic safety in VX2 tumor-bearing rabbits (organ H&E, serum biochemistry)
Protocol: Twenty-four VX2 tumor-burdened rabbits were evenly divided into four groups. After fasting for 12 h, the rabbits were anesthetized by intravenous injection of pentobarbital sodium solution (2 wt.%, 30 mg/kg). The rabbit’s right femoral artery was dissected and a 4-F Cobra catheter (Cook, Inc., Bloomington, Indiana) was inserted into the celiac artery, hepatic arteriography was then performed under the guidance of digital subtraction angiography (DSA), and a 2.7-F coaxial microcatheter (Terumo, Tokyo, Japan) was super-selectively inserted into the tumor donor branch subsequently. The emulsion of drugs and lipiodol were slowly injected into the tumor-feeding artery through the above microcatheter at a speed of 0.5 mL/min. […] After obtaining all DSA images, the sheaths and catheters were removed.
Seven days after treatment, the liver tumors, hearts, lungs, kidneys and spleens were harvested and fixed in 4% phosphate-buffered paraformaldehyde, the specimens were embedded in paraffin blocks and cut into 5‐μm‐thick sections. Following the manufacturer’s guidelines, the sections were stained with haematoxylin and eosin (H&E) for the evaluation of organ toxicity and tumor necrosis, Ki-67 staining and transfer-mediated dUTP nick end labeling (TUNEL) technique were used to detect tumor proliferation and apoptosis, respectively.
Blood samples were collected before treatment and at 1, 3, 7 days after treatment. The blood samples were stood at room temperature for 30 min, and the serum was obtained by centrifugation (room temperature, 8000 rpm, 10 min) for assessment of alanine aminotransferase (ALT), aspartate aminotransferase (AST), total bilirubin (TBIL) and creatinine (CREA). The assays were performed using the commercially ready-made kits following the manufacturers’ instructions.

HUVEC cells [5] = experiment: Annexin V-FITC/PI cell apoptosis assay, HUVEC; type: cell-based, human; conditions: 10 μM, 24 h, Annexin V-PI FACS
Protocol: The improved proapoptotic activity of QR-KLU was further confirmed by Annexin V-PI staining through FACS. Viable cells, early apoptotic cells, necrotic cells, late apoptotic cells were represented by Q4, Q3, Q2 and Q1 respectively. […] Besides, QR-KLU induced cell apoptosis in a dose-dependent manner. […] The percentage of apoptotic cells in KLU peptide at 20 μM were about 25% in both Huh7 cells and HUVEC cells.
(§4) The apoptosis assay was performed according to the manufacturer’s instructions using an Annexin V: Fluorescein Isothiocyanate (FITC) Apoptosis Detection Kit I (BD Pharmingen™). Briefly, Huh 7 or HUVEC cells were seeded in a 12-well plate and allowed to grow for 24 h in medium with 10% FBS. Then, the cells were treated with the different peptides in medium with 5% FBS for 24 h’ incubation. The cells were harvested with 0.25% trypsin/EDTA, washed twice with PBS and suspended in 1 × binding buffer. The suspended cells were treated with FITC-labeled Annexin V and propidium iodide (PI) as the protocol indicated and then analyzed by flow cytometry to determine the apoptotic cells. The cells with positive fluorescence intensity signals for both FITC and PI were used for the apoptotic cell count.
Supplementary Figure S2. Cell apoptosis of HUVEC induced by different peptides. HUVEC cells were treated with PBS, 80μM QR, 20μM KLU, 5μM QR-KLU, 10μM QR-KLU for 24 hours before detection by FACS.

Huh 7 cells = conditions: 10 μM, 24 h, Annexin V-PI FACS
Protocol: Viable cells, early apoptotic cells, necrotic cells, late apoptotic cells were represented by Q4, Q3, Q2 and Q1 respectively.
as §4

VX2 liver tumor = experiment: VX2 rabbit liver tumor model with TAE/TACE: tumor growth, necrosis, apoptosis, proliferation, angiogenesis; type: in vivo, New Zealand white rabbits
Protocol: New Zealand white rabbits (2.5-3 kg) were purchased from the Laboratory Animal Center of Tongji Medical College of Huazhong University of Science and Technology (Wuhan, China). All the animal experimental procedures were performed in accordance with the National Institutes of Health Guidelines for the Care and Use of Laboratory Animals and the protocol was approved by the Ethics Committee of Tongji Medical College, Huazhong University of Science and Technology. Blinding was not possible in most animal experiments. The rabbit VX2 liver tumor model was established according to the method reported by Qian K et al.. […] The acquisition parameters of the sequence are as follows: […], TR 2750 ms, TE 65 ms, the field of view 120 mm × 120 mm, Slice thickness 3 mm in the transverse plane, matrix 152 × 152. The multi-vane technique was used to reduce artifacts and improve image quality, acquisition time 3 min […]; […] Seven days after TACE procedure, tumor size was evaluated again by MR scan and the tumor volume was calculated by formula: V = a * b^2/2 (a, long diameter; b, short diameter). And tumor growth rate was calculated by formula: […] Finally, the VX2 rabbits were sacrificed and the tumor tissues were harvested for biochemical analysis and histopathological examination. […] The IHC staining procedures were performed as previously described. Briefly, the sections were blocked in 3% H2O2 for 25 min and then incubated with goat serum for 15 min. Subsequently, the sections were first washed and incubated with anti-VEGF (1:200, Abcam, USA), and anti-CD31 (1:20; Abcam, USA) overnight at 4 °C, and then incubated with second antibody (Abcam, USA) at 37 °C for 50 min. Next, the sections were stained with 3, 3'-diaminobenzidine (DAB, Service bio, Wuhan […] Biotechnology Co., Ltd., China) for 6 min and rinsed and stained in hematoxylin for 30 s. The sections were then dehydrated in gradient alcohol and sealed in neutral resins. VEGF expression was assessed by semiquantitative IHC based on staining intensity and density, the staining intensity was scored as 0 (negative), 1 (weak), 2 (moderate), and 3 (strong), while the staining density was scored on the basis of the percentage of positively stained cells: 0 (0%), 1 (1-25%), 2 (26-50%), 3 (51-75%), and 4 (76-100%). The total VEGF IHC score was calculated by multiplying the intensity score by the density score. Microvessel density (MVD) was calculated according to the method developed by Weidner et al.

[6] = 7 days after treatment, versus NS group

CC(=O)N[C@@H](CCC(N)=O)C(=O)N[C@@H](CCCCN)C(=O)N[C@@H](CCCNC(=N)N)C(=O)N[C@@H](CCCCN)C(=O)N[C@@H](CCCNC(=N)N)C(=O)N[C@@H](CCCCN)C(=O)N[C@@H](CCCCN)C(=O)N[C@@H](CO)C(=O)N[C@@H](CCCNC(=N)N)C(=O)N[C@@H](Cc1ccc(O)cc1)C(=O)N[C@@H](CCCCN)C(=O)N[C@@H](CO)C(=O)NCCCCCC(=O)N[C@@H](CCCCN)C(=O)N[C@@H](CC(C)C)C(=O)NC(C)(C)C(=O)N[C@@H](CCCCN)C(=O)N[C@@H](CC(C)C)C(=O)NC(C)(C)C(=O)N[C@@H](CCCCN)C(=O)N[C@@H](CCCCN)C(=O)N[C@@H](CC(C)C)C(=O)NC(C)(C)C(=O)N[C@@H](CCCCN)C(=O)N[C@@H](CC(C)C)C(=O)NC(C)(C)C(=O)N[C@@H](CCCCN)C(N)=O [QR-KLU] (Ac-QKRKRKKSRYKS[Ahx]KL[Aib]KL[Aib]KKL[Aib]KL[Aib]K-NH2; N-terminus and C-terminus assumed)
effect of QR-KLU on cell penetration of FAM-labeled peptide QR in HT29 [1]: could not obviously affect cell penetration ability
cell migration of HUVEC (wound epithelial gap) (HUVEC cells [2]): the wound epithelial gap was unchanged or even bigger
effect of QR-KLU on cell penetration of FAM-labeled peptide QR in HUVEC [3]: decreased cell penetration ability
H&E staining of hearts, lungs, kidneys and spleens ([4]; 7 days after TACE, 4 mg/kg in lipiodol): no apparent tissue injury
liver and renal toxicity (ALT, AST, TBIL, CREA in serum) ([4]; before and 1, 3, 7 days after treatment, 4 mg/kg in lipiodol via TAE): no significant liver or renal toxicity
apoptosis rate in HUVEC cells (HUVEC cells [5]): over 40%
apoptosis rate in Huh 7 cells (Huh 7 cells): over 60%
mean tumor volume at 7 days after TAE procedure (VX2 liver tumor; 0.5 mL lipiodol emulsion into tumor-feeding artery, DOX 2 mg/kg, KLU 4 mg/kg, QR-KLU 4 mg/kg, MR images, 24 rabbits evenly in four groups, mean ± SD): 1008.5 ± 370.7 mm^3
tumor growth rate (V7/V0 × 100%) (VX2 liver tumor; 7 days after TAE, DOX 2 mg/kg, KLU 4 mg/kg, QR-KLU 4 mg/kg in lipiodol, NS group 276.4%): significantly lower than that of the NS group; also recorded: significantly lower than the other three groups
VEGF IHC score in tumor (VX2 liver tumor; 7 days after embolization, IHC intensity × density score, compared with NS group): significantly reduced the expression of CD31 and VEGF
microvessel density (MVD), CD31 IHC (VX2 liver tumor; 7 days after embolization, mean of three ×200 fields, compared with NS group): reduce the MVD in the tumor
mean proportion of apoptotic cells in tumor (TUNEL) (VX2 liver tumor; [6]): significantly higher than that in NS group; also recorded: highest
mean proportion of proliferating cells in tumor (Ki67) (VX2 liver tumor; [6]): significantly lower than that in NS group; also recorded: lowest
mean tumor volume one day before TAE procedure (VX2 liver tumor; baseline, MR images, V = a*b^2/2, VX2 rabbits, 24 rabbits evenly in four groups, mean ± SD): 899.7 ± 394.0 mm^3
